According to patent US8143212B2 (Vicuron Pharmaceuticals Inc., priority 2002, dated 2012):
Converted amounts (≈) assume the structure as drawn. Read-outs that look alike come from different tables or passages of the source.

Key:
S aureus = assay: MIC, microbiological activity (Tables 2, 3); type: cell-based
[1] = Pharmacokinetics and safety in subjects with hepatic impairment (VER001-12); conditions: human, in vivo, intravenous, 1000 mg Day 1 and 500 mg Day 8, Mean (±SD)
Source text: (§1) The study enrolled otherwise healthy subjects with mild, moderate, or severe hepatic impairment (Child-Pugh scores 5 to 6, 7 to 9, and 10 to 15, respectively) and matched control subjects with normal hepatic function.

bacteria = assay: Minimum bactericidal concentration; type: cell-based; conditions: in plasma
Source text: The amount of dalbavancin administered may be any of the dosages disclosed herein.

clinical = conditions: human, in vivo
Source text: as §1

Staph. aureus = assay: ED50 against Staph. aureus murine septicaemias (Table 2); type: in vivo; conditions: Staphylococcus aureus, MSSA, sc, 10 min
S. pneumoniae = assay: Murine thigh-infection model (time kill, dosing regimen, PK/PD, neutrophils; Tables 31-33); type: in vivo, mice
Protocol: Each point represents the mean of 4 thighs. Five dose levels, ranging 16-fold were used.
Five different doses (two-fold increases) were used. […] Each point represents the mean of 4 thighs.
Each point represents the mean of four thighs.
Each point represents the mean value from 4 thighs. The static dose, and the doses associated with a 1 and 2 log kill were calculated from the parameters estimated by non-linear regression using the Hill equation.

[2] = Mean ± SD of S. pneumoniae strains, q 24 h regimen
[3] = Mean ± SD of S. pneumoniae strains, q 72 h regimen

CN[C@H]1C(=O)N[C@@H]2Cc3ccc(cc3)Oc3cc4cc(c3O[C@@H]3O[C@H](C(=O)O)[C@@H](O)[C@H](O)[C@H]3NC(=O)CCCCCCCCC(C)C)Oc3ccc(cc3Cl)[C@@H](O)[C@@H]3NC(=O)[C@H](NC(=O)[C@@H]4NC(=O)[C@@H](NC2=O)c2cc(cc(O)c2Cl)Oc2cc1ccc2O)c1ccc(O)c(c1)-c1c(O[C@H]2O[C@H](CO)[C@@H](O)[C@H](O)[C@@H]2O)cc(O)cc1[C@@H](C(=O)NCCCN(C)C)NC3=O [Dalbavancin]
MIC (S aureus; 3817 S aureus clin. Isolate, read-out: MIC): < 0.03 µg/mL
MIC (S aureus; L 819 S aureus Smith 50% serum): 2 µg/mL (≈ 1.1 µM)
MIC (S aureus; L 819 S aureus Smith 50% serum, read-out: MIC): 1 µg/mL (≈ 0.55 µM)
MIC (S aureus; Staphylococcus aureus, MSSA, MSSA Staph. aureus Smith 819, read-out: MIC): 0.06 µg/mL (≈ 0.033 µM)
half-life ([1]; t1/2, Mild Hepatic Impairment (N = 6)): 13.5 days
half-life ([1]; t1/2, Moderate Hepatic Impairment (N = 6)): 13.3 days
half-life ([1]; t1/2, Normal Hepatic Function (N = 9)): 13.4 days
half-life ([1]; t1/2, Severe Hepatic Impairment (N = 5)): 13.4 days
MBC (bacteria): ~4 µg/mL (≈ 2.2 µM)
clearance (clinical; CL): 0.777 mL/min
Vd (clinical; Vss): 18.1 L
ED50 (Staph. aureus): 0.05 mg/kg
1 Log Kill f24AUC/MIC (S. pneumoniae; [2]): 21 ± 7.4
1 Log Kill mg/kg/24 h (S. pneumoniae; [2]): 1.1 ± 0.47 mg/kg/24 h
2 Log Kill f24AUC/MIC (S. pneumoniae; [2]): 24.3 ± 8.2
2 Log Kill mg/kg/24 h (S. pneumoniae; [2]): 1.23 ± 0.52 mg/kg/24 h
Static Effect f24AUC/MIC (S. pneumoniae; [2]): 17.6 ± 6.9
Static Effect mg/kg/24 h (S. pneumoniae; [2]): 0.91 ± 0.44 mg/kg/24 h
1 Log Kill f24AUC/MIC (S. pneumoniae; [3]): 9.0 ± 5.8
1 Log Kill mg/kg/24 h (S. pneumoniae; [3]): 0.93 ± 0.24 mg/kg/24 h
2 Log Kill f24AUC/MIC (S. pneumoniae; [3]): 16.6 ± 12.3
2 Log Kill mg/kg/24 h (S. pneumoniae; [3]): 1.13 ± 0.36 mg/kg/24 h
Static Effect f24AUC/MIC (S. pneumoniae; [3]): 7.2 ± 4.5
Static Effect mg/kg/72 h (S. pneumoniae; [3]): 0.77 ± 0.18 mg/kg/72 h
1 Log Kill f24AUC/MIC (S. pneumoniae; SP1199, q 24 h regimen): 19.4
1 Log Kill mg/kg/24 h (S. pneumoniae; SP1199, q 24 h regimen): 0.49 mg/kg/24 h
2 Log Kill f24AUC/MIC (S. pneumoniae; SP1199, q 24 h regimen): 22.7
2 Log Kill mg/kg/24 h (S. pneumoniae; SP1199, q 24 h regimen): 0.57 mg/kg/24 h
Static Effect f24AUC/MIC (S. pneumoniae; SP1199, q 24 h regimen): 16.0
Static Effect mg/kg/24 h (S. pneumoniae; SP1199, q 24 h regimen): 0.40 mg/kg/24 h
1 Log Kill f24AUC/MIC (S. pneumoniae; SP1199, q 72 h regimen): 12.1
1 Log Kill mg/kg/24 h (S. pneumoniae; SP1199, q 72 h regimen): 0.85 mg/kg/24 h
2 Log Kill f24AUC/MIC (S. pneumoniae; SP1199, q 72 h regimen): 35.3
2 Log Kill mg/kg/24 h (S. pneumoniae; SP1199, q 72 h regimen): 0.99 mg/kg/24 h
Static Effect f24AUC/MIC (S. pneumoniae; SP1199, q 72 h regimen): 10.3
Static Effect mg/kg/72 h (S. pneumoniae; SP1199, q 72 h regimen): 0.72 mg/kg/72 h
1 Log Kill f24AUC/MIC (S. pneumoniae; SP1293, q 24 h regimen): 21.7
1 Log Kill mg/kg/24 h (S. pneumoniae; SP1293, q 24 h regimen): 0.55 mg/kg/24 h
2 Log Kill f24AUC/MIC (S. pneumoniae; SP1293, q 24 h regimen): 25.9
2 Log Kill mg/kg/24 h (S. pneumoniae; SP1293, q 24 h regimen): 0.65 mg/kg/24 h
Static Effect f24AUC/MIC (S. pneumoniae; SP1293, q 24 h regimen): 17.4
Static Effect mg/kg/24 h (S. pneumoniae; SP1293, q 24 h regimen): 0.44 mg/kg/24 h
1 Log Kill f24AUC/MIC (S. pneumoniae; SP1293, q 72 h regimen): 18
1 Log Kill mg/kg/24 h (S. pneumoniae; SP1293, q 72 h regimen): 1.28 mg/kg/24 h
2 Log Kill f24AUC/MIC (S. pneumoniae; SP1293, q 72 h regimen): 23.8
2 Log Kill mg/kg/24 h (S. pneumoniae; SP1293, q 72 h regimen): 1.68 mg/kg/24 h
Static Effect f24AUC/MIC (S. pneumoniae; SP1293, q 72 h regimen): 14.1
Static Effect mg/kg/72 h (S. pneumoniae; SP1293, q 72 h regimen): 1.01 mg/kg/72 h
1 Log Kill f24AUC/MIC (S. pneumoniae; SP1325, q 24 h regimen): 31.8
1 Log Kill mg/kg/24 h (S. pneumoniae; SP1325, q 24 h regimen): 1.6 mg/kg/24 h
2 Log Kill f24AUC/MIC (S. pneumoniae; SP1325, q 24 h regimen): 34.5
2 Log Kill mg/kg/24 h (S. pneumoniae; SP1325, q 24 h regimen): 1.73 mg/kg/24 h
Static Effect f24AUC/MIC (S. pneumoniae; SP1325, q 24 h regimen): 29.0
Static Effect mg/kg/24 h (S. pneumoniae; SP1325, q 24 h regimen): 1.46 mg/kg/24 h
1 Log Kill f24AUC/MIC (S. pneumoniae; SP1325, q 72 h regimen): 8.8
1 Log Kill mg/kg/24 h (S. pneumoniae; SP1325, q 72 h regimen): 0.99 mg/kg/24 h
